Measured values as given in the Kinase Knowledgebase extract (Sharma et al. 2016).

target: CDK2 (UniProt P24941); test: Enzyme Assay

O=C(Nc1cccc2c1C(=O)c1c-2n[nH]c1-c1ccc(OCCN(CCO)CCO)cc1)NN1CCOCC1 and CN1CCN(NC(=O)Nc2cccc3c2C(=O)c2c-3n[nH]c2-c2ccc(OCCN(CCO)CCO)cc2)CC1 cannot be ordered by IC50: under 0.1 µM for the first, under 0.1 µM for the second.

Cc1cc(OCCn2cccn2)ccc1-c1[nH]nc2c1C(=O)c1c(NC(=O)NN3CCN(C)CC3)cccc1-2 and CN1CCN(NC(=O)Nc2cccc3c2C(=O)c2c-3n[nH]c2-c2ccc(OCCn3cccn3)cc2)CC1 cannot be ordered by IC50: under 0.1 µM for the first, under 0.1 µM for the second.

O=C(Nc1cccc2c1C(=O)c1c(-c3ccc(CN4CCN(c5cccc(C(F)(F)F)c5)CC4)cc3)n[nH]c1-2)NN1CCOCC1 and O=C(Nc1cccc2c1C(=O)c1c(-c3ccc(CN4CCN(c5ccccn5)CC4)cc3)n[nH]c1-2)NN1CCOCC1 cannot be ordered by IC50: under 0.1 µM for the first, under 0.1 µM for the second.

O=C(Nc1cccc2c1C(=O)c1c-2n[nH]c1-c1ccc(OCC(=O)N2CCOCC2)cc1)NN1CCOCC1 and CC(C)N1CCN(C(=O)COc2ccc(-c3[nH]nc4c3C(=O)c3c(NC(=O)NN5CCOCC5)cccc3-4)cc2)CC1 cannot be ordered by IC50: under 0.1 µM for the first, under 0.1 µM for the second.

CC(C)c1nn(-c2c(Cl)cccc2Cl)c2nc(Cc3ccc(OCCO)cc3)[nH]c(=O)c12 and COCCOc1ccc(Cc2nc3c(c(C(C)C)nn3-c3c(Cl)cccc3Cl)c(=O)[nH]2)cc1 cannot be ordered by IC50: under 0.1 µM for the first, under 0.1 µM for the second.

CC(C)N1CCN(CCOc2ccc(-c3n[nH]c4c3C(=O)c3c(NC(=O)NN5CCOCC5)cccc3-4)c(F)c2)CC1 and CN1CCN(CCOc2ccc(-c3n[nH]c4c3C(=O)c3c(NC(=O)NN5CCN(C)CC5)cccc3-4)c(F)c2)CC1 cannot be ordered by IC50: under 0.1 µM for the first, under 0.1 µM for the second.

Cc1nc(Cc2nc3c(c(C(C)C)nn3-c3c(Cl)cccc3Cl)c(=O)[nH]2)cs1 and CC(C)c1nn(-c2c(Cl)cccc2Cl)c2nc(Cc3ccc(O)cc3)[nH]c(=O)c12 cannot be ordered by IC50: under 0.01 µM for the first, under 0.01 µM for the second.

CC(C)N1CCN(NC(=O)Nc2cccc3c2C(=O)c2c-3n[nH]c2-c2ccc(OCCN3CCCC3)cc2)CC1 and CC(C)OC(=O)CN1CCN(NC(=O)Nc2cccc3c2C(=O)c2c-3n[nH]c2-c2ccc(OCCN3CCCC3)cc2)CC1 cannot be ordered by IC50: under 0.01 µM for the first, under 0.1 µM for the second.

CCN(CCO)S(=O)(=O)c1cc(Cl)c(-n2nc(C(C)C)c3c(=O)[nH]c(Cc4ccc(OCCN5CCOCC5)cc4)nc32)c(Cl)c1 and CCN1CCN(S(=O)(=O)c2cc(Cl)c(-n3nc(C(C)C)c4c(=O)[nH]c(Cc5ccc(OCCN6CCOCC6)cc5)nc43)c(Cl)c2)CC1 cannot be ordered by IC50: under 0.1 µM for the first, under 1 µM for the second.

Cc1cc(-c2[nH]nc3c2C(=O)c2c(NC(=O)NN4CCN(C)CC4)cccc2-3)ccc1OCCN1CCN(C(C)C)CC1 and Cc1cc(OCCN2CCCN(C)CC2)ccc1-c1[nH]nc2c1C(=O)c1c(NC(=O)NN3CCN(C)CC3)cccc1-2 cannot be ordered by IC50: under 0.1 µM for the first, under 0.1 µM for the second.

CC(C)c1nn(-c2c(Cl)cccc2Cl)c2nc(Cc3ccc(C(=O)NOCCN4CCOCC4)cc3)[nH]c(=O)c12 and CC(C)c1nn(-c2c(Cl)cccc2Cl)c2nc(Cc3ccc(NS(=O)(=O)CCCN4CCOCC4)cc3)[nH]c(=O)c12 cannot be ordered by IC50: under 0.1 µM for the first, under 0.1 µM for the second.

CC(C)N1CCN(C(=O)COc2ccc(-c3n[nH]c4c3C(=O)c3c(NC(=O)NN5CCOCC5)cccc3-4)cc2)CC1 and CC(C)N1CCN(S(=O)(=O)c2ccc(-c3[nH]nc4c3C(=O)c3c(NC(=O)NN5CCOCC5)cccc3-4)cc2)CC1 cannot be ordered by IC50: under 0.1 µM for the first, under 0.01 µM for the second.

CC(C)c1nn(-c2c(Cl)cc(Cl)cc2Cl)c2nc(Cc3ccc(CN4CCN(C(C)C)CC4)n3C)[nH]c(=O)c12 and CC(C)c1nn(-c2c(Cl)cc(Cl)cc2Cl)c2nc(Cc3ccc(CN4CCCC4)n3C)[nH]c(=O)c12 cannot be ordered by IC50: under 0.1 µM for the first, under 0.1 µM for the second.

Cc1cc(OCCN2CCCC2)ccc1-c1[nH]nc2c1C(=O)c1c(NC(=O)NN3CCN(C)CC3)cccc1-2 and Cc1cc(OCCN2CCCCC2)ccc1-c1[nH]nc2c1C(=O)c1c(NC(=O)NN3CCN(C)CC3)cccc1-2 cannot be ordered by IC50: under 0.1 µM for the first, under 0.1 µM for the second.

CN1CCN(NC(=O)Nc2cccc3c2C(=O)c2c(-c4ccc(OCCN5CCCC5)cc4F)n[nH]c2-3)CC1 and Cc1cc(OCCN2CCOCC2)ccc1-c1[nH]nc2c1C(=O)c1c(NC(=O)NN3CCN(C)CC3)cccc1-2 cannot be ordered by IC50: under 0.1 µM for the first, under 0.1 µM for the second.

CCOC(=O)COc1ccc(-c2[nH]nc3c2C(=O)c2c(NC(=O)NN4CCOCC4)cccc2-3)cc1 and Cc1noc(COc2ccc(-c3[nH]nc4c3C(=O)c3c(NC(=O)NN5CCOCC5)cccc3-4)cc2)n1 cannot be ordered by IC50: under 0.1 µM for the first, under 0.1 µM for the second.

CC(C)c1nn(-c2c(Cl)cccc2Cl)c2nc(Cc3ccc(O)c(CN4CCOCC4)c3)[nH]c(=O)c12 and CC(C)c1nn(-c2c(Cl)cccc2Cl)c2nc(Cc3ccc(CN4CCCC4)c(O)c3)[nH]c(=O)c12 cannot be ordered by IC50: under 0.1 µM for the first, under 0.1 µM for the second.

CN(C)C(=O)CN1CCN(NC(=O)Nc2cccc3c2C(=O)c2c-3n[nH]c2-c2ccc(OCCN3CCCC3)cc2)CC1 and CC(C)C(N)C(=O)OCCN1CCN(NC(=O)Nc2cccc3c2C(=O)c2c-3n[nH]c2-c2ccc(OCCN3CCCC3)cc2)CC1 (configuration not stated) cannot be ordered by IC50: under 0.1 µM for the first, under 0.1 µM for the second.

CN1CCN(NC(=O)Nc2cccc3c2C(=O)c2c-3n[nH]c2-c2ccc(O)cc2)CC1 and Cc1noc(COc2ccc(-c3[nH]nc4c3C(=O)c3c(NC(=O)NN5CCN(C)CC5)cccc3-4)cc2)n1 cannot be ordered by IC50: under 0.1 µM for the first, under 0.1 µM for the second.

CC(C)N1CCN(Cc2cc(-c3[nH]nc4c3C(=O)c3c(NC(=O)NN5CCOCC5)cccc3-4)ccc2O)CC1 and O=C(Nc1cccc2c1C(=O)c1c-2n[nH]c1-c1ccc(O)c(CN2CCOCC2)c1)NN1CCOCC1 cannot be ordered by IC50: under 0.1 µM for the first, under 0.1 µM for the second.

O=C(Nc1cccc2c1C(=O)c1c(-c3ccc(CN4CCC[C@H]4CO)cc3)n[nH]c1-2)NN1CCOCC1 and O=C(Nc1cccc2c1C(=O)c1c(-c3ccc(CN4CCC(O)CC4)cc3)n[nH]c1-2)NN1CCOCC1 cannot be ordered by IC50: under 0.1 µM for the first, under 0.1 µM for the second.

O=C(Nc1cccc2c1C(=O)c1c(-c3ccc(CNCCOCCO)cc3)n[nH]c1-2)NN1CCOCC1 and O=C(Nc1cccc2c1C(=O)c1c(-c3ccc(CN4CCN(CCO)CC4)cc3)n[nH]c1-2)NN1CCOCC1 cannot be ordered by IC50: under 0.1 µM for the first, under 0.1 µM for the second.

O=C(Nc1cccc2c1C(=O)c1c(-c3ccc(OCCN4CCOCC4)c(F)c3)n[nH]c1-2)NN1CCOCC1 and COc1cc(-c2[nH]nc3c2C(=O)c2c(NC(=O)NN4CCOCC4)cccc2-3)ccc1OCCN1CCCC1 cannot be ordered by IC50: under 0.1 µM for the first, under 0.1 µM for the second.

CC(C)c1nn(-c2c(Cl)cc(Cl)cc2Cl)c2nc(Cc3ccc(NS(=O)(=O)CCCN4CCN(C(C)C)CC4)cc3)[nH]c(=O)c12 and CC(C)c1nn(-c2c(Cl)cc(Cl)cc2Cl)c2nc(Cc3ccc(NS(=O)(=O)CCCN4CCCCC4)cc3)[nH]c(=O)c12 cannot be ordered by IC50: under 0.1 µM for the first, under 0.1 µM for the second.

CN1CCN(NC(=O)Nc2cccc3c2C(=O)c2c-3n[nH]c2-c2ccc(OCCN3CC[C@H](O)C3)cc2)CC1 and COCCN1CCN(Cc2ccc(-c3[nH]nc4c3C(=O)c3c(NC(=O)NN5CCOCC5)cccc3-4)cc2)CC1 cannot be ordered by IC50: under 0.1 µM for the first, under 0.01 µM for the second.

CC(C)c1nn(-c2c(Cl)cc(Cl)cc2Cl)c2nc(Cc3ccc(OCC(C)(C)O)cc3)[nH]c(=O)c12 and CC(C)c1nn(-c2c(Cl)cc(Cl)cc2Cl)c2nc(Cc3ccc(OCCO)cc3)[nH]c(=O)c12 cannot be ordered by IC50: under 0.1 µM for the first, under 0.1 µM for the second.

CC(C)c1nn(-c2c(Cl)cccc2Cl)c2nc(Cc3ccc(OCCOP(=O)(O)O)cc3)[nH]c(=O)c12 and CC(C)c1nn(-c2c(Cl)cc(Cl)cc2Cl)c2nc(Cc3ccc(OCCN4CCN(C(C)C)CC4)cc3)[nH]c(=O)c12 cannot be ordered by IC50: under 0.1 µM for the first, under 0.01 µM for the second.

CC(C)c1nn(-c2c(Cl)cccc2Cl)c2nc(Cc3ccc(CN4CCN(C(C)C)CC4)c(O)c3)[nH]c(=O)c12 and CN1CCN(Cc2ccc(-c3n[nH]c4c3C(=O)c3c(NC(=O)NN5CCOCC5)cccc3-4)cc2)CC1 cannot be ordered by IC50: under 0.1 µM for the first, under 0.1 µM for the second.

target: CDK2 (UniProt P24941); test: Enzyme Assay; remark: another data set of the same source

O=C(Nc1cccc2c1C(=O)c1c-2n[nH]c1-c1ccc(OCCN(CCO)CCO)cc1)NN1CCOCC1 gave an IC50 of under 0.1 µM.
